Data reported in US7605005B2, “Method of screening for agents that modulate Tysnd1 level or activity in a cell” (Riken, priority 2005, dated 2009).

Legend:
Tysnd1 = test: Protease inhibition assay: processing of Acaa1 and Acox1 by recombinant Tysnd1; assay type: biochemical, mouse; settings: preincubated 30 min at 25° C., then 12 h at 37° C., substrates Acaa1 and Acox1
IDE = molecular target: T1, IDE (Homo sapiens, UniProt P14735); settings: cited from earlier work
T1 sequence (P14735 1-1019): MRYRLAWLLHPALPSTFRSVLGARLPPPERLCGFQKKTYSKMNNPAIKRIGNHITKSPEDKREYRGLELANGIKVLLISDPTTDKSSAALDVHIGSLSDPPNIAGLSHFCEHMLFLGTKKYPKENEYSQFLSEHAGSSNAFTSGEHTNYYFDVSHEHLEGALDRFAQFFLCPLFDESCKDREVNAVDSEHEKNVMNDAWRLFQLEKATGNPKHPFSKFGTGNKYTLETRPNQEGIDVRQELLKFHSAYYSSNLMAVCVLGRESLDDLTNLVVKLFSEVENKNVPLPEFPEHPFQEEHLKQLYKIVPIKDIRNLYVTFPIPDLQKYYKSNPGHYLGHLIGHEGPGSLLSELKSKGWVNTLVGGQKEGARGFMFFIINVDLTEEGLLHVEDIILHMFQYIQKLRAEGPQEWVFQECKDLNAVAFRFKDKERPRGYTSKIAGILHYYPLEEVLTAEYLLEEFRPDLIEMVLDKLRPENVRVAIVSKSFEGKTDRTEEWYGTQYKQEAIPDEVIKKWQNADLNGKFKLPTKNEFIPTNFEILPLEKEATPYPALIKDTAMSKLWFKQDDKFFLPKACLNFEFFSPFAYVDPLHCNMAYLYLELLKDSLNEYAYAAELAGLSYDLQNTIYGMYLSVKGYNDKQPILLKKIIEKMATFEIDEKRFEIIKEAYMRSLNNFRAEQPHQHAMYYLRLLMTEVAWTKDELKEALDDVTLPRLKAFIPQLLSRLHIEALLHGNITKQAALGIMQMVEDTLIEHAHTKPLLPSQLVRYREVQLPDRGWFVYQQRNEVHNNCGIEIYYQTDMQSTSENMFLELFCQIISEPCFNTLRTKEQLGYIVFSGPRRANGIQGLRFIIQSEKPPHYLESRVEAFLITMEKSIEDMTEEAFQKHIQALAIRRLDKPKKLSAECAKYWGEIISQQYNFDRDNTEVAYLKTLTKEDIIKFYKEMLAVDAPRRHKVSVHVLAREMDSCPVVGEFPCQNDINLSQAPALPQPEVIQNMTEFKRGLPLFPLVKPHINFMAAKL

fatty acid oxidation = settings: reference 80; cited from earlier work

SMILES	Inhibition of peroxisomal protease IDE (IDE)	Fatty acid oxidation (fatty acid oxidation)	Tysnd1 processing activity in the presence of protease inhibitor (Tysnd1; inhibitor 1 mM)	other results
CC(C)C[C@H](NC(=O)[C@H]1O[C@@H]1C(=O)O)C(=O)NCCCCN=C(N)N (relative stereo) [E64, trans-epoxysuccinyl-1-leucylamido-(4-guanidino) butane]	not	–	–	Tysnd1 processing activity in the presence of protease inhibitor (Tysnd1; inhibitor 20 μM): resistant
COc1ccc(CN2CCNCC2)c(OC)c1OC [trimetazidine]	–	inhibit	–	–
CCN1C(=O)C=CC1=O [NEM, N-ethylmaleimide]	inhibited	–	completely abolished	–
CC(=O)N[C@@H](CC(C)C)C(=O)N[C@@H](CC(C)C)C(=O)N[C@H](C=O)CCCNC(=N)N [leupeptin]	not	–	–	Tysnd1 processing activity in the presence of protease inhibitor (Tysnd1; inhibitor 10 μM): resistant
COc1ccccc1OCC(O)CN1CCN(CC(=O)Nc2c(C)cccc2C)CC1 (stereo not drawn) [ranolazine]	–	inhibit	–	–
c1cnc2c(c1)ccc1cccnc12 [1,10-phenanthroline]	–	–	Partial inhibition	–
